From patent US3968233A, “α-Amino-γ-butyrolactones as sedatives” (priority 1975, dated 1976)
“Also recorded” adds a separate entry of the source.

Key:
[1] = Clinical studies, overall; assay type: in vivo, human; conditions: humans
Method: (§1) Clinical trials were performed on three groups of patients, partly hospitalized patients and partly outpatients. It was determined that the effect observed in the experimental pharmacological studies were useful in the treatment of humans as well.

[2] = Spontaneous mobility (light beam interruptions); assay type: in vivo, mouse
Method: Several groups of four mice each were placed in an apparatus designed to provide a measure of spontaneous mobility by counting the number of interruptions of a light beam for a period of 10 minutes. After preliminary measurement of mobility, animals were injected with AP-28 (250 and 500 mg/kg) intraperitoneally. Control animals received saline solution. Ten minutes thereafter the measurement of mobility was repeated. Five groups of mice were used as controls and six other groups were treated with varying doses of AP-28.

Arterial blood pressure = assay type: in vivo; conditions: single 500 mg/kg oral dose
Method: (§2) The effect of a single 500 mg/kg oral dose of AP-28 was determined on (a) diuresis in water-loaded rats, (b) choleresis, (c) the excretion rate of intravenously-injected bromosulfonphthalein in bile, (d) arterial blood pressure.

[3] = Time to death by slow intravenous infusion of strychnine; assay type: in vivo, mouse; conditions: for mean infusion time to cause animals to die: strychnine infusion 0.25 ml/min
Method: (3) continuous intravenous infusion at constant rate (0.4 ml/min) of a strychnine sulfate solution (26.66 mg/l) was carried out by injection through a tail vein into mice until they died. One group of animals received 500 mg/kg of AP-28 as preliminary treatment 15 minutes prior to the beginning of infusion. The mean infusion time to cause six control animals to die was 134 ± 3.2 seconds (mean ± SE). The mean infusion time required to obtain the same effect in animals pretreated with AP-28 was 210 ± 6.1 seconds.
In another experiment the infusion rate of strychnine was lowered to 0.25 ml/min. Under this condition, the mean infusion time was 246 ± 3.1 seconds in the case of controls (six animals) and 338 ± 24.3 seconds in that of treated animals.
When the same infusion rate as above was maintained and the amount of AP-28 was reduced to 250 mg/kg, the mean infusion time was 260 ± 13.4 seconds with control animals and 360 ± 21.2 seconds with treated animals.

[4] = Excretion rate of intravenously-injected bromosulfonphthalein in bile; assay type: in vivo; conditions: single 500 mg/kg oral dose
Method: as §2

Choleresis = assay type: in vivo; conditions: single 500 mg/kg oral dose
Method: as §2

[5] = Clinical trial, 2nd group: strain and anxiety; assay type: in vivo, human; conditions: 500 to 1500 mg/day
Method: as §1
The dose levels used with these patients varied between 500 and 1500 mg/day, divided into two or three doses which were given during the day.

[6] = Clinical trial, 3rd group: essential epilepsy; assay type: in vivo, human; conditions: 0.500 to 1.500 g daily, 10 to 30 days
Method: as §1
Four patients suffering from essential epilepsy were treated for periods of time varying between 10 and 30 days with daily doses ranging from 0.500 to 1.500 g. […] In the fourth patient it was possible to lower the anti-epileptic massive therapy they had been following for some time, and on which they were maintained throughout this study, by more than 50%.

[7] = Diuresis in water-loaded rats; assay type: in vivo, rat
Method: as §2

[8] = Clinical trial, 1st group: insomnia; assay type: in vivo, human; conditions: 400-600 mg one dose at night, 5 to 15 days; seven patients
Method: as §1
Seven patients complaining of insomnia were treated for a period of time varying from 5 to 15 days. The daily dose was 400-600 mg given as one dose at night.

[9] = Protective effect against electroshock (MES); conditions: AP-28 250 mg/kg i.p., 10 minutes before electroshock
[10] = Acute toxicity of AP-28 in the rat; assay type: in vivo, rat (Wistar-Morini Strain); conditions: for Died/treated: in 24 hours; for Remarks: oral
Method: AP-28 was administered to adult rats (Wistar-Morini Strain) of both sexes after fasting overnight. It was administered in an aqueous 1-percent suspension of tragacanth gum orally by gastric probe or intraperitoneally.

[11] = Enhancement of the hypnotic effect of sodium pentobarbital; assay type: in vivo, mouse
Method: Forty mg/kg of sodium pentobarbital was injected intraperitoneally into mice and note was taken of animals losing the righting reflex and for how long. Other mice received a preliminary treatment with AP-28 at a dosage of 250 and 500 mg/kg, intraperitoneally, and thereafter sodium pentobarbital was given to them.

[12] = Influence on amphetamine-induced hypermobility; assay type: in vivo, mouse; conditions: d-amphetamine sulfate 5 mg/kg i.p. + AP-28 250 mg/kg i.p. 15 minutes later
Method: Six groups of 4 mice each were treated with 5 mg/kg d-amphetamine sulfate by intraperitoneal administration. Six groups of 4 animals each received the same dose of d-amphetamine sulfate plus 250 mg/kg of AP-28 intraperitoneally 15 minutes after d-amphetamine sulfate; six more groups of four animals each received saline solution and served as control animals. […] The number of times each animal crossed the light beam throughout the 10-minute test was noted.

[13] = oral (gastric probe), 250 mg/kg
[14] = oral (gastric probe), 500 mg/kg
[15] = oral (gastric probe), 1000 mg/kg
[16] = oral (gastric probe), 1500 mg/kg
[17] = oral (gastric probe), 2000 mg/kg
[18] = AP-28 250 + sodium pentobarbital 40 mg/kg i.p.
[19] = AP-28 500 + sodium pentobarbital 40 mg/kg i.p.

With `CCCCOC(=O)NC1CCOC1=O` (stereo not drawn) [AP-28, α-n-butoxycarbonyl-amino-γ-butyrolactone] the adverse effects [1] was “No adverse effects were observed”, the “Percent reduction at 2nd measurement” value ([2]; 250 mg/kg i.p.) was 68.1% and the “mobility, percent of the baseline values” ([2]; 250 mg/kg i.p.) was 31.9%. The “Percent reduction at 2nd measurement” value ([2]; 500 mg/kg i.p.) was 76.9%, the “mobility, percent of the baseline values” ([2]; 500 mg/kg i.p.) was 23.1% and the “Mean number of crossings (± SE)” value ([2]; after treatment, 250 mg/kg i.p.) was 84.1 ± 15. For the same compound, the “Mean number of crossings (± SE)” value ([2]; after treatment, 500 mg/kg i.p.) was 50.5 ± 5, the “Mean number of crossings (± SE)” value ([2]; before treatment, 250 mg/kg i.p. group) was 261.5 ± 25 and the “Mean number of crossings (± SE)” value ([2]; before treatment, 500 mg/kg i.p. group) was 229 ± 15. The arterial blood pressure (Arterial blood pressure) was “No treatment caused any significant change”, the “mean infusion time to cause animals to die” value ([3]; AP-28 250 mg/kg, control 260 ± 13.4) was 360 ± 21.2 s and the “mean infusion time to cause animals to die (mean ± SE)” value ([3]; AP-28 500 mg/kg, 15 minutes prior, strychnine infusion 0.4 ml/min, control 134 ± 3.2) was 210 ± 6.1 s. The “mean infusion time to cause animals to die” value ([3]; AP-28 500 mg/kg, control 246 ± 3.1) was 338 ± 24.3 s, the “excretion rate of bromosulfonphthalein in bile” value [4] was “No treatment caused any significant change” and the choleresis (Choleresis) was “No treatment caused any significant change”. For the same compound, the “somnolence, daily torpor or motive conceptual slowness” value [5] was “in no case somnolence, daily torpor or motive conceptual slowness were observed; also recorded: without causing daily drowsiness or torpor”, the “disorders or difficulty in usual working activity” value ([5]; outpatients) was “No outpatient reported disorders or difficulty in carrying out their usual working activity” and the “lowering of anti-epileptic massive therapy, fourth patient” value [6] was “more than 50%”. The “rate of urine excretion” value ([7]; 500 mg/kg oral daily for 5 subsequent days) was “the rate of urine excretion was slowed”, the diuresis ([7]; single 500 mg/kg oral dose) was “No treatment caused any significant change” and the “effects on awakening (blunting or grogginess)” value [8] was “no blunting or grogginess of their minds when they woke up; also recorded: no apparent effects on awakening”. The Number animals died [9] was 0/8, the “Number animals with clonic convulsions” value ([9]; in parentheses number treated) was 8(8) and the “Number animals with tonic convulsions” value ([9]; in parentheses number treated) was 0(8). For the same compound, the “loss of the righting reflex” value ([10]; highest oral dose) was “did not cause the loss of the righting reflex”, the “Remarks: sedated for” value ([10]; i.p., 250 mg/kg) was “about 15 minutes” and the “Under hypnosis/treated (loss of the righting reflex)” value ([10]; i.p., 250 mg/kg) was 0/4. For the same compound, the Died/treated ([10]; i.p., 250 mg/kg) was 0/4, the “Remarks: sedated for” value ([10]; i.p., 500 mg/kg) was “about 20 minutes” and the “Under hypnosis/treated (loss of the righting reflex)” value ([10]; i.p., 500 mg/kg) was 0/4. For the same compound, the Died/treated ([10]; i.p., 500 mg/kg) was 0/4, the “loss of the righting reflex” value ([10]; i.p., 1 g/kg) was “the loss of the righting reflex occurred” and the “Remarks: under hypnosis for” value ([10]; i.p., 1000 mg/kg) was “about 15 minutes”. For the same compound, the “Under hypnosis/treated (loss of the righting reflex)” value ([10]; i.p., 1000 mg/kg) was 4/4, the Died/treated ([10]; i.p., 1000 mg/kg) was 0/4 and the “Remarks: under hypnosis for” value ([10]; i.p., 1500 mg/kg) was “about 30 minutes”. For the same compound, the “Under hypnosis/treated (loss of the righting reflex)” value ([10]; i.p., 1500 mg/kg) was 4/4, the Died/treated ([10]; i.p., 1500 mg/kg) was 0/4 and the “Remarks: under hypnosis for” value ([10]; i.p., 2000 mg/kg) was “about 60 minutes”. For the same compound, the “Under hypnosis/treated (loss of the righting reflex)” value ([10]; i.p., 2000 mg/kg) was 4/4, the Died/treated ([10]; i.p., 2000 mg/kg) was 0/4 and the toxicity ([10]; laboratory animals, summary statement) was “toxicity is nearly negligible”. The “Under hypnosis/treated (loss of the righting reflex)” value [10, 13] was 0/4, the Died/treated [10, 13] was 0/4 and the “Under hypnosis/treated (loss of the righting reflex)” value [10, 14] was 0/4. The Died/treated [10, 14] was 0/4, the “Under hypnosis/treated (loss of the righting reflex)” value [10, 15] was 0/4 and the Died/treated [10, 15] was 0/4. The “Under hypnosis/treated (loss of the righting reflex)” value [10, 16] was 0/4, the Died/treated [10, 16] was 0/4 and the “Under hypnosis/treated (loss of the righting reflex)” value [10, 17] was 0/4. For the same compound, the Died/treated [10, 17] was 0/4, the Remarks ([10]; 250 mg/kg) was “No particular effect” and the Remarks ([10]; 500 mg/kg) was “did not cause any particular effect”. The Remarks ([10]; 1000 mg/kg) was “Slightly sedated; also recorded: a mild sedative effect”, the Remarks ([10]; 1500 mg/kg) was “Sedated” and the Remarks ([10]; 2000 mg/kg (highest oral dose), 2000 mg/kg) was “produced a sedative effect; also recorded: Very sedated”. For the same compound, the “duration of sedative and hypnotic effects” value ([10]; rat) was “not long lasting and the animal returned to normal”, the LD0 ([10]; rat, oral or intraperitoneal) was “more than 2 g/kg” and the Animals under hypnosis/treated [11, 18] was 4/4. For the same compound, the “Duration of hypnosis in minutes (m ± SE)” value [11, 18] was 52.5 ± 13 min, the Animals under hypnosis/treated [11, 19] was 4/4 and the “Duration of hypnosis in minutes (m ± SE)” value [11, 19] was 75.2 ± 21.6 min. For the same compound, the “Mean number of crossings (± SE) in 10 minutes” value [12] was 836 ± 100.
